# Where a name gives a salt, the structure may show the parent alone.
# Test system: lubricin
# Format: cell-based
# Settings: lubricin expression; primary human synovial fibroblasts; cells lysed after 48-72 hours; each supplement in 6 wells
# Description: To identify substances having the ability to lubricate synovial joints, we first screened a library of substances for the ability to induce expression and secretion of endogenous lubricin in cultured synovial fibroblasts. A library of nutritional supplements containing 175 natural compounds was made using a natural compound collection. Each supplement was dissolved in water to an approximate concentration of 10 mM. 96-well daughter plates were made and plates were stored at −20° C.
# Human synovial fibroblasts were plated the evening of the first day of the assay and grown overnight. In the morning of day 2, a supplement solution was added to each well of the 96-well plate. Each supplement was tested in 6 different wells to provide enough separate measurements to allow a statistical analysis of the results of the assay. After 48-72 hours, cells were lysed using a non-ionic detergent and supernatants containing cellular extracts were collected. Each supernatant was assayed for lubricin expression using any of the two methods described below.
# We have developed two methods to measure the expression of lubricin, both of which are based on a sandwich assay. In the first sandwich assay, concanavilin A (a lectin) is used to capture lubricin while peanut agglutinin (a lectin) is used to detect proteins secreted by synovial fibroblasts. In contrast, the second assay relies on a rabbit polyclonal antibody for both the capture and detection of lubricin secreted by fibroblasts. In both assays, purified lubricin was used as a calibrator.
# A substance that raised the level of measured lubricin in a significant manner when analyzed by t-test was considered a potentially efficacious substance useful for the present invention. All significant results were repeated in two additional experiments. […] In this regard, the 16 compounds that increased lubricin in the lectin-based assay were the same 16 compounds that increased lubricin levels in the antibody-based assay. […] Compounds that increase lubricin expression in synovial fibroblasts are indicated in Table 1 and the level of increase in lubricin expression is shown in Table 2 and FIG. 2.
# Substances from the nutritional supplement library were screened for their ability to stimulate lubricin expression in primary human synovial fibroblasts. Cells were cultured in the presence or absence of each substance and lubricin expression was measured using the two detection assays discussed below.
# In both assays, the cellular content of synovial cells was extracted as follows. Following the removal of culture media, cells were washed twice with D-PBS. Cells were first incubated in 500 μL of 1% Triton in D-PBS for five minutes and then mechanically disrupted using a pipette to ensure that all cells detach from the plates. The Triton solution containing the cells was transferred to an eppendorf and stored on ice. Samples were sonicated for three seconds and centrifuged for five minutes. The supernatant containing the cellular extracts was transferred to a fresh tube and tested for lubricin expression.
row,Compound,Percent stimulation relative to untreated control Adjusted for background [%]
1,"N[C@@H](CS)C(=O)O [Compound G-22, L-Cysteine]",363
2,"CCCCCCCCCCCCCCCCCCCCCCCCCCCCO [Compound G-5, Octacosanol]",307
3,"CSCC[C@H](N)C(=O)O [Compound G66, L-Methionine]",234
4,Bromelain [Compound G126],75
5,"Cc1ncc(C[n+]2csc(CCO)c2C)c(N)n1 [Compound G-27, Thiamin HCl]",267
6,"CC(C)(CO)[C@@H](O)C(=O)NCCC(=O)O [Compound G-35, Pantothenic Acid]",154
7,"C[C@]12CCC(=O)C=C1CC[C@@H]1[C@@H]2CC[C@]2(C)C(=O)CC[C@@H]12 [Compound G-57, Androstenedione]",219
8,"O=c1c(O)c(-c2ccc(O)c(O)c2)oc2cc(O)cc(O)c12 [Compound G-15, Quercetin]",118

# Reference: patent US20060240037A1, “Methods and compositions for the treatment and prevention of degenerative joint disorders” (priority 2003, published 2006)
